# Results as given in patent US8236761B2, “C-Met receptor regulation by angiotensin IV (AT4) receptor ligands” (Washington State University Research Foundation, priority 2006, dated 2012).
# Non-standard residues stand in square brackets, D forms with d. No end group written: not given here. Nle = CCCC[C@H](N)C(=O)O
# What was measured:
# [1] = test system: MDCK cells; test: HGF-induced MDCK cell scattering (coverslip assay); type: cell-based, canine
# Procedure: FIG. 8A: Confluent MDCK cells on coverslips were treated with HGF (110 pM), or HGF (110 pM)+Norleual (100 pM) for 48 hours. Digital images of top, bottom, left, and right sectors were acquired and the scattering of cells In each digital image was scored in blinded fashion and normalized to control scores. The difference between HGF and HGF+Norleual groups was significant (*p=0.0245, n=3). Error bars indicate±SEM. FIG. 8B: MDCK cells were plated on 6 mm diameter coverslips in DMEM 10% FBS and grown to 100% confluency. The coverslips were then transferred to fresh 6 well plates and the cells were serum-deprived for 24 hours to synchronize the cells in the same growth state. Thereafter, the 20 ng/ml of HGF alone and in the presence of 10^−10 M Norleual in a 1% FBS DMEM was added to the cells. […] This ring was photographed and loaded on to NIH image J. Using NIH image J, the pixel count was determined for each ring. […]
# Scattering assay. […] Scattering was scored in blinded fashion by comparison to a set of calibration scattering images by two investigators. […]
# To explore the physiological significance of the angiotensin-like factor Norleual's ability to depress c-Met signaling, Norleual's effect on HGF induced cell scattering of Madin-Darby canine kidney (MDCK) cells was assessed with the coverslip assay (Miao et al., 2003 J. Cell Biol. 162: 1281-1292). […]
# [2] = test system: urokinase plasminogen activator (uPA); test: c-Met/HGF urokinase plasminogen activator (uPA) induction in MDCK cells; type: cell-based, canine; details: HGF 10 ng/ml, Norleual 10^−10 M and 10^−12 M, 48 hours
# Procedure: Thereafter, 10 ng/ml of HGF alone and with the indicated concentrations of Norleual in a 1% FBS DMEM were added to the cells. The cells were cultured under these conditions for four days. On the fourth day, the treatment media was aspirated and replaced with 5 mg/ml of MTT reagent in 0.1 M glycine buffer (Invitrogen). The MTT reagent was incubated with the cells for four hours at 37° C. before adding DMSO to solubilize the cells and record the MTT absorbance on a plate reader. The controls were treated as background and subtracted from all of the treatments to determine the increase in proliferation due solely to HGF treatment. Differences between the treatments were determined using one-way ANOVA with Bonferroni's post-hoc analysis (Prism statistical analysis software). * indicate p<0.05 vs. HGF treatment. N=6, mean+/−SEM. […] Madin-Darby Canine Kidney (MDCK) cells were plated in the wells of a 96 well plate in 100 μl of complete Dulbecco's Modified Eagle's Medium (DMEM). The cells were serum starved for 24 hours to induce quiescence. […] Absorbance of the cleaved substrate was quantitated on a Biotek Synergy HT 2 plate reader according to the manufacturer's instructions. […] The data was analyzed with Prism® (GraphPad, San Diego, Calif.) statistical analysis software. * indicates p<0.01 vs. HGF treatment by Tukey's post-hoc analysis. […]
# [3] = test system: c-Met receptor; test: Cross-linking of 125I-COMPOUND 2 or 125I-HGF to HEK293 cell membranes with unlabeled competitor; type: binding, human; details: 125I-HGF cross-linked to HEK293 cell membranes, FIG. 3B
# Procedure: FIG. 3C: ^125I-Norleual was bound to HEK membranes in the presence or absence of 1.5 nM HGF (n=8) or 1 μM Norleual (n=6). Total binding is reported as percent control (n=10), (*p<0.001). Error bars indicate±SD. […] Error bars indicate SD and data points were performed in duplicate.
# Briefly, COMPOUND 2 was iodinated with […] and bound and cross-linked to HEK cell membranes with or without 1 nM COMPOUND 2 or 1 nM hepatocyte growth factor. Following solubilization and separation of free label by molecular sieving, total radioactive counts were determined. The ability of the ligand COMPOUND 2 to compete with hepatocyte growth factor binding to the c-Met receptor was also tested using mouse liver plasma membranes and intact HEK293 cells. Briefly, mouse liver was homogenized and incubated with ^125I-HGF with various concentrations of HGF or COMPOUND 2. Membranes were pelleted and unbound label was removed by washing, and total radioactive counts were determined. Next, HEK293 cell membranes were cross-linked with ^125I-HGF with unlabeled HGF or COMPOUND 2.
substance,measurement,setting,value
Nle-Tyr-Leu-ψ-His-Pro-Phe ([Nle]YLHPF; also: reduced peptide bond psi(CH2NH2) between Leu and His) [Norleual],HGF-induced MDCK cell scattering,"[1]; HGF 110 pM + Norleual 100 pM, 48 hours, FIG. 8A",inhibited
same,Hepatocyte growth factor-dependent cell scattering,"[1]; HGF 20 ng/ml, COMPOUND 2 10^−10M, FIG. 7",inhibited
same,c-Met/HGF uPA induction,[2],attenuation
same,Mode of inhibition of HGF binding to the c-Met receptor,[3],competitive inhibitor of HGF binding to the c-Met receptor
